# In patent publication US11759462B2, “Spirocyclic compounds as tryptophan hydroxylase inhibitors” (priority 2013, dated 2023):
# Read-outs that look alike come from different tables or passages of the source.
# Molecular target: T1, Recombinant human TPH1 (MBP tagged) (Homo sapiens, UniProt P17752)
# T1 construct: cloning full length human TPH1 cDNA in to a bacterial pMAL-c5E expression vector; made in house; host or cells: E. coli BL21 (DE3)
# T1 sequence (P17752 1-444): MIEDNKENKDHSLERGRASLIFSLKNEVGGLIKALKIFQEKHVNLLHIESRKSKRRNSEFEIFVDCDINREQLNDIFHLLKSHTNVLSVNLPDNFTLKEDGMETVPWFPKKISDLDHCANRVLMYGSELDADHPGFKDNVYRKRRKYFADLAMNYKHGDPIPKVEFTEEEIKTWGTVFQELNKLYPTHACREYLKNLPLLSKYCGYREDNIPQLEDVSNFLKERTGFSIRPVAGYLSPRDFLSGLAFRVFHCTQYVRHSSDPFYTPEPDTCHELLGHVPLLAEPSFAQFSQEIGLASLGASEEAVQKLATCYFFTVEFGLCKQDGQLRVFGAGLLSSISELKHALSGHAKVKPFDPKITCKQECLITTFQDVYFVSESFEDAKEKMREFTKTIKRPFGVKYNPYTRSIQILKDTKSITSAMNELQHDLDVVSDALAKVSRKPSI
# Assay: TPH1 in vitro inhibition assay (kinetic fluorescence)
# Format: biochemical
# Procedure, shortened: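 Final mix: 15 nM MBP-TPH1, 30 μM Trp, 36 μM 6-methyltetrahydropterin, 25 μM ferrous ammonium sulfate, 50 mM MES pH 7.1, 1% DMSO, room temperature.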
# [1] = read-out: TPH1 Range (TPH1 inhibition IC50)
# [2] = TPH1 Range (TPH1 inhibition IC50)
SMILES,IC50 [1] [nM],IC50 [2] [nM]
"COc1ncccc1-c1ccc([C@@H](Oc2cc(N3CCC4(CC3)CN[C@H](C(=O)O)C4)nc(C)n2)C(F)(F)F)c(-n2ccc(C)n2)c1 [Example 29k, (S)-8-(2-methyl-6-((R)-2,2,2-trifluoro-1-(4-(2-methoxypyridin-3-yl)-2-(3-methyl-1H-pyrazol-1-yl)phenyl)ethoxy)pyrimidin-4-yl)-2,8-diazaspiro[4.5]decane-3-carboxylic acid]",50 to 300,–
"COc1ccc(-c2ccc([C@@H](Oc3cc(N4CCC5(CC4)CN[C@H](C(=O)O)C5)nc(C)n3)C(F)(F)F)c(-n3ccc(C)n3)c2)cc1F [Example 29l, (S)-8-(2-methyl-6-((R)-2,2,2-trifluoro-1-(3′-fluoro-4′-methoxy-3-(3-methyl-1H-pyrazol-1-yl)-[1,1′-biphenyl]-4-yl)ethoxy)pyrimidin-4-yl)-2,8-diazaspiro[4.5]decane-3-carboxylic acid]",< 50,–
"Cc1ccn(-c2cc(-c3cccc(C(=O)N(C)C)c3)ccc2[C@@H](Oc2cc(N3CCC4(CC3)CN[C@H](C(=O)O)C4)nc(C)n2)C(F)(F)F)n1 [Example 29m, (S)-8-(6-((R)-1-(3′-(dimethylcarbamoyl)-3-(3-methyl-1H-pyrazol-1-yl)-[1,1′-biphenyl]-4-yl)-2,2,2-trifluoroethoxy)-2-methylpyrimidin-4-yl)-2,8-diazaspiro[4.5]decane-3-carboxylic acid]",50 to 300,–
"Cc1cc(C)c(-c2ccc([C@@H](Oc3cc(N4CCC5(CC4)CN[C@H](C(=O)O)C5)nc(C)n3)C(F)(F)F)c(-n3ccc(C)n3)c2)c(C)c1 [Example 29n, (S)-8-(2-methyl-6-((R)-2,2,2-trifluoro-1-(2′,4′,6′-trimethyl-3-(3-methyl-1H-pyrazol-1-yl)-[1,1′-biphenyl]-4-yl)ethoxy)pyrimidin-4-yl)-2,8-diazaspiro[4.5]decane-3-carboxylic acid]",50 to 300,–
"Cc1ccn(-c2cc(-c3ccc(OC(C)C)cc3)ccc2[C@@H](Oc2cc(N3CCC4(CC3)CN[C@H](C(=O)O)C4)nc(C)n2)C(F)(F)F)n1 [Example 29o, (S)-8-(2-methyl-6-((R)-2,2,2-trifluoro-1-(4′-isopropoxy-3-(3-methyl-1H-pyrazol-1-yl)-[1,1′-biphenyl]-4-yl)ethoxy)pyrimidin-4-yl)-2,8-diazaspiro[4.5]decane-3-carboxylic acid]",< 50,–
"COc1ccccc1-c1ccc([C@@H](Oc2cc(N3CCC4(CC3)CN[C@H](C(=O)O)C4)nc(C)n2)C(F)(F)F)c(-n2ccc(C)n2)c1 [Example 29p, (S)-8-(2-methyl-6-((R)-2,2,2-trifluoro-1-(2′-methoxy-3-(3-methyl-1H-pyrazol-1-yl)-[1,1′-biphenyl]-4-yl)ethoxy)pyrimidin-4-yl)-2,8-diazaspiro[4.5]decane-3-carboxylic acid]",< 50,–
"COC(=O)c1ccc(-c2ccc([C@@H](Oc3cc(N4CCC5(CC4)CN[C@H](C(=O)O)C5)nc(C)n3)C(F)(F)F)c(-n3ccc(C)n3)c2)cc1OC [Example 29q, (S)-8-(2-methyl-6-((R)-2,2,2-trifluoro-1-(3′-methoxy-4′-(methoxycarbonyl)-3-(3-methyl-1H-pyrazol-1-yl)-[1,1′-biphenyl]-4-yl)ethoxy)pyrimidin-4-yl)-2,8-diazaspiro[4.5]decane-3-carboxylic acid]",< 50,–
"Cc1ccn(-c2cc(-c3ccc(C(C)(C)C)cc3)ccc2[C@@H](Oc2cc(N3CCC4(CC3)CN[C@H](C(=O)O)C4)nc(C)n2)C(F)(F)F)n1 [Example 29r, (S)-8-(6-((R)-1-(4′-(tert-butyl)-3-(3-methyl-1H-pyrazol-1-yl)-[1,1′-biphenyl]-4-yl)-2,2,2-trifluoroethoxy)-2-methylpyrimidin-4-yl)-2,8-diazaspiro[4.5]decane-3-carboxylic acid]",< 50,–
"CCOc1ccc(-c2ccc([C@@H](Oc3cc(N4CCC5(CC4)CN[C@H](C(=O)O)C5)nc(C)n3)C(F)(F)F)c(-n3ccc(C)n3)c2)cc1 [Example 29s, (S)-8-(6-((R)-1-(4′-ethoxy-3-(3-methyl-1H-pyrazol-1-yl)-[1,1′-biphenyl]-4-yl)-2,2,2-trifluoroethoxy)-2-methylpyrimidin-4-yl)-2,8-diazaspiro[4.5]decane-3-carboxylic acid]",< 50,–
"Cc1ccn(-c2cc(-c3ccc(OC(F)(F)F)cc3)ccc2[C@@H](Oc2cc(N3CCC4(CC3)CN[C@H](C(=O)O)C4)nc(C)n2)C(F)(F)F)n1 [Example 29t, (S)-8-(2-methyl-6-((R)-2,2,2-trifluoro-1-(3-(3-methyl-1H-pyrazol-1-yl)-4′-(trifluoromethoxy)-[1,1′-biphenyl]-4-yl)ethoxy)pyrimidin-4-yl)-2,8-diazaspiro[4.5]decane-3-carboxylic acid]",50 to 300,–
"COC(=O)c1cccc(-c2ccc([C@@H](Oc3cc(N4CCC5(CC4)CN[C@H](C(=O)O)C5)nc(C)n3)C(F)(F)F)c(-n3ccc(C)n3)c2)c1 [Example 29u, (S)-8-(2-methyl-6-((R)-2,2,2-trifluoro-1-(3′-(methoxycarbonyl)-3-(3-methyl-1H-pyrazol-1-yl)-[1,1′-biphenyl]-4-yl)ethoxy)pyrimidin-4-yl)-2,8-diazaspiro[4.5]decane-3-carboxylic acid]",50 to 300,–
"Nc1nc(O[C@H](c2ccc(Cl)cc2N2CCCC2=O)C(F)(F)F)cc(N2CCC3(CC2)CN[C@H](C(=O)O)C3)n1 [Example 33, (S)-8-(2-amino-6-((R)-1-(4-chloro-2-(2-oxopyrrolidin-1-yl)phenyl)-2,2,2-trifluoroethoxy)pyrimidin-4-yl)-2,8-diazaspiro[4.5]decane-3-carboxylic acid]",50 to 300,–
"Nc1nc(O[C@H](c2ccc(Cl)cc2-c2cccc(Cl)c2)C(F)(F)F)cc(N2CCC3(CC2)CN[C@H](C(=O)O)C3)n1 [Example 34a, (S)-8-(2-amino-6-((R)-1-(3′,5-dichloro-[1,1′-biphenyl]-2-yl)-2,2,2-trifluoroethoxy)pyrimidin-4-yl)-2,8-diazaspiro[4.5]decane-3-carboxylic acid]",–,< 50

# Results, then the molecule that gave them:
IC50 [1] [nM],IC50 [2] [nM],SMILES
< 50,–,"C=CC(=O)NCc1cccc(-c2cc(Cl)ccc2[C@@H](Oc2cc(N3CCC4(CC3)CN[C@H](C(=O)O)C4)nc(N)n2)C(F)(F)F)c1 [Example 34aa, (S)-8-(6-((R)-1-(3′-(acrylamidomethyl)-5-chloro-[1,1′-biphenyl]-2-yl)-2,2,2-trifluoroethoxy)-2-aminopyrimidin-4-yl)-2,8-diazaspiro[4.5]decane-3-carboxylic acid]"
300 to 3000,–,"Nc1nc(O[C@H](c2ccc(Cl)cc2-c2cccc(C(=O)O)c2)C(F)(F)F)cc(N2CCC3(CC2)CN[C@H](C(=O)O)C3)n1 [Example 34ab, (S)-8-(2-amino-6-((R)-1-(3′-carboxy-5-chloro-[1,1′-biphenyl]-2-yl)-2,2,2-trifluoroethoxy)pyrimidin-4-yl)-2,8-diazaspiro[4.5]decane-3-carboxylic acid]"
–,< 50,"NC(=O)c1cccc(-c2cc(Cl)ccc2[C@@H](Oc2cc(N3CCC4(CC3)CN[C@H](C(=O)O)C4)nc(N)n2)C(F)(F)F)c1 [Example 34ac, (S)-8-(2-amino-6-((R)-1-(3′-carbamoyl-5-chloro-[1,1′-biphenyl]-2-yl)-2,2,2-trifluoroethoxy)pyrimidin-4-yl)-2,8-diazaspiro[4.5]decane-3-carboxylic acid]"
–,300 to 3000,"CS(=O)(=O)c1ccc(-c2cc(Cl)ccc2[C@@H](Oc2cc(N3CCC4(CC3)CN[C@H](C(=O)O)C4)nc(N)n2)C(F)(F)F)cc1 [Example 34ad, (S)-8-(2-amino-6-((R)-1-(5-chloro-4′-(methylsulfonyl)-[1,1′-biphenyl]-2-yl)-2,2,2-trifluoroethoxy)pyrimidin-4-yl)-2,8-diazaspiro[4.5]decane-3-carboxylic acid]"
–,300 to 3000,"Nc1nc(O[C@H](c2ccc(Cl)cc2-c2ccc(S(N)(=O)=O)cc2)C(F)(F)F)cc(N2CCC3(CC2)CN[C@H](C(=O)O)C3)n1 [Example 34ae, (S)-8-(2-amino-6-((R)-1-(5-chloro-4′-sulfamoyl-[1,1′-biphenyl]-2-yl)-2,2,2-trifluoroethoxy)pyrimidin-4-yl)-2,8-diazaspiro[4.5]decane-3-carboxylic acid]"
< 50,–,"Nc1nc(O[C@H](c2ccc(Cl)cc2-c2ccc(Cl)c(F)c2)C(F)(F)F)cc(N2CCC3(CC2)CN[C@H](C(=O)O)C3)n1 [Example 34af, (S)-8-(2-amino-6-((R)-1-(4′,5-dichloro-3′-fluoro-[1,1′-biphenyl]-2-yl)-2,2,2-trifluoroethoxy)pyrimidin-4-yl)-2,8-diazaspiro[4.5]decane-3-carboxylic acid]"
< 50,–,"CC(C)Oc1cccc(-c2cc(Cl)ccc2[C@@H](Oc2cc(N3CCC4(CC3)CN[C@H](C(=O)O)C4)nc(N)n2)C(F)(F)F)c1 [Example 34ag, (S)-8-(2-amino-6-((R)-1-(5-chloro-3′-isopropoxy-[1,1′-biphenyl]-2-yl)-2,2,2-trifluoroethoxy)pyrimidin-4-yl)-2,8-diazaspiro[4.5]decane-3-carboxylic acid]"
< 50,–,"CCOc1cccc(-c2cc(Cl)ccc2[C@@H](Oc2cc(N3CCC4(CC3)CN[C@H](C(=O)O)C4)nc(N)n2)C(F)(F)F)c1 [Example 34ah, (S)-8-(2-amino-6-((R)-1-(5-chloro-3′-ethoxy-[1,1′-biphenyl]-2-yl)-2,2,2-trifluoroethoxy)pyrimidin-4-yl)-2,8-diazaspiro[4.5]decane-3-carboxylic acid]"
